# Assay results as given in patent publication US20240132431A1, “METHOD FOR ALKYLATING ACIDIC FUNCTIONAL GROUP” (Chugai Seiyaku Kabushiki Kaisha, priority 2021, published 2024).
# Target: T1, Bcl-2 protein (Recombinant Human Bcl-2 Protein) (Homo sapiens, UniProt P10415)
# T1 construct: purchased Novus NBP2-34889
# Experiment: Binding evaluation of mixture library compounds to Bcl-2 using AS-MS (affinity selection mass spectrometry)
# Conditions: ASMS Ratio(%)=(A−C)/B×100; for ASMS ratio (%) n = 1: replicate n = 1; for ASMS ratio (%) n = 2: replicate n = 2
# How it was run: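 ASMS Ratio (%) was calculated as (A−C)/B×100, where A is the protein sample after SEC, B the protein-free sample without SEC and C the protein-free sample after SEC. Each compound was at […] in a 1200-member pool with 20 μM Bcl-2, incubated 1 h at 23° C.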
# [1] = AS-MS on the mixture of 1200 library compounds
# T1 sequence (P10415 whole entry): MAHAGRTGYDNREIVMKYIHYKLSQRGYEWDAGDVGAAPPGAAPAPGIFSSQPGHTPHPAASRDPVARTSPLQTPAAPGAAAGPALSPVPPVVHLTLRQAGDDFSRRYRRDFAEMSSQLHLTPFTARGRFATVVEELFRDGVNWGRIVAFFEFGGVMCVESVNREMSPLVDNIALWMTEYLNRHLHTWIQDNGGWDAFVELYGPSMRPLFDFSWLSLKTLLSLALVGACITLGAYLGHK
"ASMS ratio (%) n = 1 (AS-MS, mixture library, Bcl-2)","ASMS ratio (%) n = 2 (AS-MS, mixture library, Bcl-2)",Structure (SMILES),ASMS ratio (%) n = 1 [1],ASMS ratio (%) n = 2 [1]
–,–,"CCOc1cccc(-c2ccc(CN3CCN(c4ccc(C(=O)N(CC)CC)cc4)CC3)c(OC)c2)c1 [B4J053-01, 4-[4-[[4-(3-Ethoxyphenyl)-2-methoxyphenyl]methyl]piperazin-1-yl]-N,N-diethylbenzamide]",−0.1%,−6.0%
–,–,"CCOc1cncc(-c2ccc(CN3CCN(c4ccc(C(=O)N(CC)CC)cc4)CC3)c(OC)c2)c1 [B4J054-01, 4-[4-[[4-(5-Ethoxypyridin-3-yl)-2-methoxyphenyl]methyl]piperazin-1-yl]-N,N-diethylbenzamide]",0.0%,−1.1%
–,–,"CCOc1cccc(-c2cc(CN3CCN(c4ccc(C(=O)N(CC)CC)cc4)CC3)cc(OCC)c2)c1 [B4J055-01, 4-[4-[[3-Ethoxy-5-(3-ethoxyphenyl)phenyl]methyl]piperazin-1-yl]-N,N-diethylbenzamide]",−0.7%,1.4%
–,–,CCOc1cncc(-c2cc(CN3CCN(c4ccc(C(=O)N(CC)CC)cc4)CC3)cc(OCC)c2)c1 [B4J056-01],−1.4%,−1.5%
–,–,"CCOc1cccc(-c2cc(CN3CCN(c4ccc(C(=O)N(CC)CC)cc4)CC3)cc(OC(C)C)c2)c1 [B4J057-01, 4-[4-[[3-(3-Ethoxyphenyl)-5-propan-2-yloxyphenyl]methyl]piperazin-1-yl]-N,N-diethylbenzamide]",5.3%,−0.1%
–,–,"CCOc1cncc(-c2cc(CN3CCN(c4ccc(C(=O)N(CC)CC)cc4)CC3)cc(OC(C)C)c2)c1 [B4J058-01, 4-[4-[[3-(5-Ethoxypyridin-3-yl)-5-propan-2-yloxyphenyl]methyl]piperazin-1-yl]-N,N-diethylbenzamide]",2.2%,0.5%
0.4%,−0.5%,CCOc1cccc(-c2ccccc2CN2CCN(c3ccc(C(=O)N(CC)CC)nn3)CC2)c1 [B4J071-01],–,–
−1.6%,0.9%,"CCOc1cncc(-c2ccccc2CN2CCN(c3ccc(C(=O)N(CC)CC)nn3)CC2)c1 [B4J072-01, 6-[4-[[2-(5-Ethoxypyridin-3-yl)phenyl]methyl]piperazin-1-yl]-N,N-diethylpyridazine-3-carboxamide]",–,–
2.1%,0.0%,"CCOc1cccc(-c2ccc(CN3CCN(c4ccc(C(=O)N(CC)CC)nn4)CC3)cc2C)c1 [B4J073-01, 6-[4-[[4-(3-Ethoxyphenyl)-3-methylphenyl]methyl]piperazin-1-yl]-N,N-diethylpyridazine-3-carboxamide]",–,–
0.0%,0.0%,"CCOc1cncc(-c2ccc(CN3CCN(c4ccc(C(=O)N(CC)CC)nn4)CC3)cc2C)c1 [B4J074-01, 6-[4-[[4-(5-Ethoxypyridin-3-yl)-3-methylphenyl]methyl]piperazin-1-yl]-N,N-diethylpyridazine-3-carboxamide]",–,–
0.0%,0.0%,"CCOc1cccc(-c2ccc(CN3CCN(c4ccc(C(=O)N(CC)CC)nn4)CC3)c(CC)c2)c1 [B4J075-01, 6-[4-[[4-(3-Ethoxyphenyl)-2-ethylphenyl]methyl]piperazin-1-yl]-N,N-diethylpyridazine-3-carboxamide]",–,–
0.0%,0.0%,"CCOc1cncc(-c2ccc(CN3CCN(c4ccc(C(=O)N(CC)CC)nn4)CC3)c(CC)c2)c1 [B4J076-01, 6-[4-[[4-(5-Ethoxypyridin-3-yl)-2-ethylphenyl]methyl]piperazin-1-yl]-N,N-diethylpyridazine-3-carboxamide]",–,–
1.2%,−5.5%,"CCOc1cccc(-c2ccc(CN3CCN(c4ccc(C(=O)N(CC)CC)nn4)CC3)cc2F)c1 [B4J077-01, 6-[4-[[4-(3-Ethoxyphenyl)-3-fluorophenyl]methyl]piperazin-1-yl]-N,N-diethylpyridazine-3-carboxamide]",–,–
−0.5%,0.9%,"CCOc1cncc(-c2ccc(CN3CCN(c4ccc(C(=O)N(CC)CC)nn4)CC3)cc2F)c1 [B4J078-01, 6-[4-[[4-(5-Ethoxypyridin-3-yl)-3-fluorophenyl]methyl]piperazin-1-yl]-N,N-diethylpyridazine-3-carboxamide]",–,–
0.0%,0.0%,"CCOc1cccc(-c2ccc(CN3CCN(c4ccc(C(=O)N(CC)CC)nn4)CC3)c(OC)c2)c1 [B4J079-01, 6-[4-[[4-(3-Ethoxyphenyl)-2-methoxyphenyl]methyl]piperazin-1-yl]-N,N-diethylpyridazine-3-carboxamide]",–,–
0.0%,0.0%,CCOc1cncc(-c2ccc(CN3CCN(c4ccc(C(=O)N(CC)CC)nn4)CC3)c(OC)c2)c1 [B4J080-01],–,–
0.0%,0.0%,"CCOc1cccc(-c2cc(CN3CCN(c4ccc(C(=O)N(CC)CC)nn4)CC3)cc(OCC)c2)c1 [B4J081-01, 6-[4-[[3-Ethoxy-5-(3-ethoxyphenyl)phenyl]methyl]piperazin-1-yl]-N,N-diethylpyridazine-3-carboxamide]",–,–
0.0%,0.0%,"CCOc1cncc(-c2cc(CN3CCN(c4ccc(C(=O)N(CC)CC)nn4)CC3)cc(OCC)c2)c1 [B4J082-01, 6-[4-[[3-Ethoxy-5-(5-ethoxypyridin-3-yl)phenyl]methyl]piperazin-1-yl]-N,N-diethylpyridazine-3-carboxamide]",–,–
0.0%,0.0%,"CCOc1cccc(-c2cc(CN3CCN(c4ccc(C(=O)N(CC)CC)nn4)CC3)cc(OC(C)C)c2)c1 [B4J083-01, 6-[4-[[3-(3-Ethoxyphenyl)-5-propan-2-yloxyphenyl]methyl]piperazin-1-yl]-N,N-diethylpyridazine-3-carboxamide]",–,–
0.0%,−0.6%,"CCOc1cncc(-c2cc(CN3CCN(c4ccc(C(=O)N(CC)CC)nn4)CC3)cc(OC(C)C)c2)c1 [B4J084-01, 6-[4-[[3-(5-Ethoxypyridin-3-yl)-5-propan-2-yloxyphenyl]methyl]piperazin-1-yl]-N,N-diethylpyridazine-3-carboxamide]",–,–
0.0%,2.8%,"CCOc1cccc(-c2cc(OC)c(CN3CCN(c4ccc(C(=O)N(CC)CC)nn4)CC3)c(OC)c2)c1 [B4J085-01, 6-[4-[[4-(3-Ethoxyphenyl)-2,6-dimethoxyphenyl]methyl]piperazin-1-yl]-N,N-diethylpyridazine-3-carboxamide]",–,–

Structure (SMILES),"ASMS ratio (%) n = 1 (AS-MS, mixture library, Bcl-2)","ASMS ratio (%) n = 2 (AS-MS, mixture library, Bcl-2)",ASMS ratio (%) n = 1 [1],ASMS ratio (%) n = 2 [1]
"CCOc1cccc(-c2cc(CN3CCN(c4ccc(C(=O)N(CC)CC)cc4)CC3)cc(C(F)(F)F)c2)c1 [B4J061-01, 4-[4-[[3-(3-Ethoxyphenyl)-5-(trifluoromethyl)phenyl]methyl]piperazin-1-yl]-N,N-diethylbenzamide]",1.6%,−1.8%,–,–
"CCOc1cncc(-c2cc(CN3CCN(c4ccc(C(=O)N(CC)CC)cc4)CC3)cc(C(F)(F)F)c2)c1 [B4J062-01, 4-[4-[[3-(5-Ethoxypyridin-3-yl)-5-(trifluoromethyl)phenyl]methyl]piperazin-1-yl]-N,N-diethylbenzamide]",0.0%,0.0%,–,–
"CCOc1cccc(-c2cc(CN3CCN(c4ccc(C(=O)N(CC)CC)cc4)CC3)cc(OC(F)(F)F)c2)c1 [B4J063-01, 4-[4-[[3-(3-Ethoxyphenyl)-5-(trifluoromethoxy)phenyl]methyl]piperazin-1-yl]-N,N-diethylbenzamide]",4.5%,0.1%,–,–
"CCOc1cncc(-c2cc(CN3CCN(c4ccc(C(=O)N(CC)CC)cc4)CC3)cc(OC(F)(F)F)c2)c1 [B4J064-01, 4-[4-[[3-(5-Ethoxypyridin-3-yl)-5-(trifluoromethoxy)phenyl]methyl]piperazin-1-yl]-N,N-diethylbenzamide]",1.6%,0.0%,–,–
"CCOc1cccc(-c2ccc(CN3CCN(c4ccc(C(=O)N(CC)CC)cc4)CC3)c3ccccc23)c1 [B4J065-01, 4-[4-[[4-(3-Ethoxyphenyl)naphthalen-1-yl]methyl]piperazin-1-yl]-N,N-diethylbenzamide]",0.0%,0.0%,–,–
"CCOc1cncc(-c2ccc(CN3CCN(c4ccc(C(=O)N(CC)CC)cc4)CC3)c3ccccc23)c1 [B4J066-01, 4-[4-[[4-(5-Ethoxypyridin-3-yl)naphthalen-1-yl]methyl]piperazin-1-yl]-N,N-diethylbenzamide]",0.0%,−1.5%,–,–
"CCOc1cccc(-c2csc(CN3CCN(c4ccc(C(=O)N(CC)CC)cc4)CC3)c2)c1 [B4J067-01, 4-[4-[[4-(3-Ethoxyphenyl)thiophen-2-yl]methyl]piperazin-1-yl]-N,N-diethylbenzamide]",−11.0%,−5.5%,–,–
"CCOc1cncc(-c2csc(CN3CCN(c4ccc(C(=O)N(CC)CC)cc4)CC3)c2)c1 [B4J068-01, 4-[4-[[4-(5-Ethoxypyridin-3-yl)thiophen-2-yl]methyl]piperazin-1-yl]-N,N-diethylbenzamide]",0.7%,0.0%,–,–
"CCOc1cccc(C#Cc2ccccc2CN2CCN(c3ccc(C(=O)N(CC)CC)cc3)CC2)c1 [B4J069-01, 4-[4-[[2-[2-(3-Ethoxyphenyl)ethynyl]phenyl]methyl]piperazin-1-yl]-N,N-diethylbenzamide]",1.8%,−0.8%,–,–
CCOc1cncc(C#Cc2ccccc2CN2CCN(c3ccc(C(=O)N(CC)CC)cc3)CC2)c1 [B4J070-01],0.0%,0.0%,–,–
